# Reference: the supplement of paper PMC9265050, “Inhibition of RNA Binding in SND1 Increases the Levels of miR-1-3p and Sensitizes Cancer Cells to Navitoclax” (Cancers, 2022)
# Tested on: SW480
# Assay: drug sensitivity score (DSS, integrated dose-response area); higher = more sensitive (stronger viability reduction); extreme values may be limits of the assay
# Procedure, shortened: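 The drug sensitivity score is the integrated area under a fitted non-linear dose–response model. It was derived from SW480 cells with doxycycline-inducible control or SND1-targeting shRNA, induced with 0.1 µg/mL doxycycline for 7 days and plated at 1000 cells per well on 384-well plates of 525 commercially available small-molecule inhibitors at five concentrations. CellTiter-Glo measured viability after 72 h.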
# [1] = shRNA: SND1 shRNA1 (SND1 silenced)
# [2] = shRNA: SND1 shRNA2 (SND1 silenced)
# [3] = shRNA: control shRNA (non-targeting)
smiles,measurement,setting,value
CO[C@@H]1[C@H](N(C)C(=O)c2ccccc2)C[C@H]2O[C@]1(C)n1c3ccccc3c3c4c(c5c6ccccc6n2c5c31)C(=O)NC4 [Midostaurin],drug sensitivity score,[1],14.3 DSS
same,drug sensitivity score,[2],14.7 DSS
same,drug sensitivity score,[3],14.5 DSS
CC1(C)CNc2cc(NC(=O)c3cccnc3NCc3ccncc3)ccc21 [Motesanib],drug sensitivity score,[1],0 DSS
same,drug sensitivity score,[2],0.4 DSS
same,drug sensitivity score,[3],0 DSS
COC(=O)N[C@@H](C)CNc1nccc(-c2cn(C(C)C)nc2-c2cc(Cl)cc(NS(C)(=O)=O)c2F)n1 [Encorafenib],drug sensitivity score,[1],0 DSS
same,drug sensitivity score,[3],1.6 DSS
CS(=O)(=O)c1ccc(C2=C(c3ccccc3)C(=O)OC2)cc1 [Rofecoxib],drug sensitivity score,[1],0 DSS
same,drug sensitivity score,[2],0 DSS
same,drug sensitivity score,[3],0 DSS
COc1cc(C(=O)O)ccc1NC(=O)[C@@H]1N[C@@H](CC(C)(C)C)[C@](C#N)(c2ccc(Cl)cc2F)[C@H]1c1cccc(Cl)c1F [Idasanutlin],drug sensitivity score,[1],0 DSS
same,drug sensitivity score,[2],0.3 DSS
same,drug sensitivity score,[3],0.9 DSS
COc1ccc2c(OCc3nnc4ccc(-c5ccccc5)nn34)ccnc2c1 [AMG-208],drug sensitivity score,[1],0 DSS
same,drug sensitivity score,[2],2 DSS
same,drug sensitivity score,[3],0.5 DSS
CN1CC[C@@H](NC(=O)Nc2ccc(C#N)cc2)C[C@@H]1c1nc2ccccc2[nH]1 [Glasdegib],drug sensitivity score,[1],0 DSS
same,drug sensitivity score,[2],0 DSS
same,drug sensitivity score,[3],5.6 DSS
O=C(O)c1ccc2c(c1)nc(Nc1cccc(Cl)c1)c1ccncc12 [Silmitasertib],drug sensitivity score,[1],2.1 DSS
same,drug sensitivity score,[2],2.1 DSS
same,drug sensitivity score,[3],0.8 DSS
Nc1nc(Nc2ccc3c(c2)CC[C@@H](N2CCCC2)CC3)nn1-c1cc2c(nn1)-c1ccccc1CCC2 [BGB324],drug sensitivity score,[1],9 DSS
same,drug sensitivity score,[2],5.9 DSS
same,drug sensitivity score,[3],9.6 DSS
O=S(=O)(c1cccc2c(O)nccc12)N1CCCNCC1 [Hydroxyfasudil],drug sensitivity score,[1],1.6 DSS
same,drug sensitivity score,[3],3.5 DSS
Nc1ncnc2c1c(COc1cccc(Cl)c1)nn2C1CCOCC1,drug sensitivity score,[1],0 DSS
same,drug sensitivity score,[2],0.1 DSS
same,drug sensitivity score,[3],0 DSS
O=C(O)CCCc1ccc(N(CCCl)CCCl)cc1 [Chlorambucil],drug sensitivity score,[1],0 DSS
same,drug sensitivity score,[2],0 DSS
same,drug sensitivity score,[3],0 DSS
CCNc1nc(Nc2cc(F)c(C(=O)N3CCOCC3)cc2OC)ncc1C(F)(F)F [GNE-7915],drug sensitivity score,[1],0 DSS
same,drug sensitivity score,[2],0 DSS
same,drug sensitivity score,[3],1.4 DSS
O=C(Nc1nc2cccc(-c3ccc(CN4CCS(=O)(=O)CC4)cc3)n2n1)C1CC1 [Filgotinib],drug sensitivity score,[1],1.5 DSS
same,drug sensitivity score,[2],0 DSS
same,drug sensitivity score,[3],3.6 DSS
S=C(NCc1ccc2c(c1)OCO2)N1CCN(c2ncnc3c2oc2ccccc23)CC1 [Amuvatinib],drug sensitivity score,[1],3.9 DSS
same,drug sensitivity score,[2],6.4 DSS
same,drug sensitivity score,[3],6.7 DSS
CC[C@]1(O)C[C@H]2CN(CCc3c([nH]c4ccccc34)[C@@](C(=O)OC)(c3cc4c(cc3OC)N(C=O)[C@H]3[C@@](O)(C(=O)OC)[C@H](OC(C)=O)[C@]5(CC)C=CCN6CC[C@]43[C@@H]65)C2)C1 [Vincristine],drug sensitivity score,[1],10.1 DSS
same,drug sensitivity score,[2],9.7 DSS
same,drug sensitivity score,[3],16.6 DSS
O=C(CCCCCCC(=O)Nc1ccccc1)NO [Vorinostat],drug sensitivity score,[1],7.8 DSS
same,drug sensitivity score,[2],8 DSS
same,drug sensitivity score,[3],9.3 DSS
CCN1CCN(Cc2ccc(Nc3ncc(F)c(-c4cc(F)c5nc(C)n(C(C)C)c5c4)n3)nc2)CC1 [Abemaciclib],drug sensitivity score,[1],4 DSS
same,drug sensitivity score,[2],0.2 DSS
same,drug sensitivity score,[3],4.1 DSS
CO[C@H](C(=O)[C@@H](O)[C@@H](C)O)[C@@H]1Cc2cc3cc(O[C@H]4C[C@@H](O[C@@H]5C[C@@H](O)[C@H](O)[C@@H](C)O5)[C@H](O)[C@@H](C)O4)c(C)c(O)c3c(O)c2C(=O)[C@H]1O[C@H]1C[C@@H](O[C@@H]2C[C@@H](O)[C@@H](O[C@@H]3C[C@](C)(O)[C@H](O)[C@@H](C)O3)[C@@H](C)O2)[C@H](O)[C@@H](C)O1 [Plicamycin],drug sensitivity score,[1],1.9 DSS
same,drug sensitivity score,[2],0 DSS
same,drug sensitivity score,[3],3.5 DSS
O=c1[nH]c(=O)n([C@H]2C[C@H](O)[C@@H](CO)O2)cc1F [Floxuridine],drug sensitivity score,[1],12.8 DSS
same,drug sensitivity score,[2],3 DSS
same,drug sensitivity score,[3],4.3 DSS
FC(F)c1nc2ccccc2n1-c1nc(N2CCOCC2)nc(N2CCOCC2)n1 [ZSTK474],drug sensitivity score,[1],7.3 DSS
same,drug sensitivity score,[2],5.1 DSS
same,drug sensitivity score,[3],4 DSS
CCC1(c2ccc(N)cc2)CCC(=O)NC1=O (configuration not stated) [Aminoglutethimide],drug sensitivity score,[1],0 DSS
same,drug sensitivity score,[2],0 DSS
same,drug sensitivity score,[3],0 DSS
CS(=O)(=O)OCCCCOS(C)(=O)=O [Busulfan],drug sensitivity score,[1],0 DSS
same,drug sensitivity score,[2],1.4 DSS
same,drug sensitivity score,[3],1.5 DSS
CCn1nnc2c(N3CCOCC3)nc(-c3ccc(NC(=O)Nc4ccc(C(=O)N5CCN(C)CC5)cc4)cc3)nc21 [PKI-402],drug sensitivity score,[1],6 DSS
same,drug sensitivity score,[2],6.6 DSS
same,drug sensitivity score,[3],8.2 DSS
CN1CCN(c2cc(C(=O)Nc3ccc4c(c3)-c3c(c(C(N)=O)nn3-c3ccc(F)cc3)CC4)c(Cl)cn2)CC1 [PHA 408],drug sensitivity score,[1],5.3 DSS
same,drug sensitivity score,[3],5.2 DSS
CO[C@H]1/C=C\C=C(/C)C(=O)NC2=CC(=O)C(NCCN(C)C)=C(C[C@@H](C)C[C@H](OC)[C@H](O)[C@@H](C)/C=C(\C)[C@@H]1OC(N)=O)C2=O [Alvespimycin],drug sensitivity score,[1],7 DSS
same,drug sensitivity score,[2],6 DSS
same,drug sensitivity score,[3],7.9 DSS
O=c1ncn2nc(Sc3ccc(F)cc3F)ccc2c1-c1c(Cl)cccc1Cl [VX 745],drug sensitivity score,[1],1.4 DSS
same,drug sensitivity score,[3],3.4 DSS
C#Cc1cccc(Nc2ncnc3cc4c(cc23)OCCOCCOCCO4)c1 [Icotinib],drug sensitivity score,[1],1.1 DSS
same,drug sensitivity score,[2],3.8 DSS
same,drug sensitivity score,[3],1.1 DSS
Oc1ncc(N(CCCl)CCCl)c(O)n1 [Uramustine],drug sensitivity score,[1],0 DSS
same,drug sensitivity score,[2],0.1 DSS
same,drug sensitivity score,[3],0 DSS
CN(C)C[C@@H]1CCn2cc(c3ccccc32)C2=C(C(=O)NC2=O)c2cn(c3ccccc23)CCO1 [Ruboxistaurin],drug sensitivity score,[1],8.1 DSS
same,drug sensitivity score,[2],7.8 DSS
same,drug sensitivity score,[3],7.4 DSS
COC(=O)C[C@](O)(CCCC(C)(C)O)C(=O)O[C@@H]1C(OC)=C[C@]23CCCN2CCc2cc4c(cc2[C@H]13)OCO4 [Omacetaxine],drug sensitivity score,[1],21.9 DSS
same,drug sensitivity score,[2],23.5 DSS
same,drug sensitivity score,[3],23.3 DSS
N#CC[C@H](C1CCCC1)n1cc(-c2ncnc3[nH]ccc23)cn1 [Ruxolitinib],drug sensitivity score,[1],2.3 DSS
same,drug sensitivity score,[2],5.6 DSS
same,drug sensitivity score,[3],4.4 DSS
